This is an account of results in article PMC3365614 (Cancer Chemotherapy and Pharmacology, 2012).

The conditions of data set [1]: for Plasma concentration, effect of flavopiridol: immediately prior to (24 h) vs end of 1-hr flavopiridol infusion (25 h) on day 2.
For data set [2] the following is noted: 1-hr infusions of flavopiridol as a single agent; cited from earlier work.
In the next data set the test system is human serum proteins. Particulars: cited from earlier work.
Data set [3] is classed as in vivo, human.
The subject of another data set is ABCG2. The settings on record: cited from earlier work.

Regarding `Cc1ccc(NC(=O)c2ccc(CN3CCNCC3)cc2)cc1Nc1nccc(-c2cccnc2)n1` [CGP74588], in data set [1], the “Plasma concentration, effect of flavopiridol” value was “increase”. Also, the “AUC of the metabolite CGP74588, effect of flavopiridol” value in data set [1] (presence vs absence of flavopiridol, P=0.84) is “not significantly affected”.
In the case of `CN1CC[C@H](c2c(O)cc(O)c3c(=O)cc(-c4ccccc4Cl)oc23)[C@H](O)C1` [flavopiridol], the “flavopiridol clearance, previously reported” value in data set [2] is 13.8 L/hr/m^2. Moreover, the “binding to human serum proteins” value in the data set with human serum proteins is reported as “bind tightly”. The “mean flavopiridol clearance (per body surface area)” value in data set [3] (1-hr infusions of 30, 45 or 60 mg/m^2 with 400 or 600 mg/day imatinib, cycle 1) stood at 13.2 L/hr/m^2. In data set [3] (human, plasma, intravenous), the clearance was 427 mL/min and the half-life is 2.33 ± 0.97 h. The ABCG2 substrate status result in the data set on ABCG2 is given as “substrate”.
Take `Cc1ccc(NC(=O)c2ccc(CN3CCN(C)CC3)cc2)cc1Nc1nccc(-c2cccnc2)n1` [imatinib]: the “Plasma concentration, effect of flavopiridol” value in data set [1] was “did not affect”. The “AUC of imatinib, lower in the presence of flavopiridol” value in data set [1] (on average, presence vs absence of flavopiridol, p=0.022) was determined as 21%. The ABCG2 inhibition entry in the data set on ABCG2 is given as “inhibitor”.
